According to article PMC7998250, “Temperate Zone Plant Natural Products—A Novel Resource for Activity against Tropical Parasitic Diseases” (Pharmaceuticals, 2021):
Like-named read-outs stand apart in the source and are kept apart here.

What was measured:
[1] = test system: 700022-resistant line of L. mexicana (r22) axenic amastigotes; assay: EC50 in 700022-resistant L. mexicana (r22) axenic amastigotes; assay type: cell-based, Leishmania mexicana; conditions: for EC50: Leishmania mexicana, read-out: r22 28 weeks EC50, r22 after 28 weeks of 700022 selection pressure; for r22 28 weeks RI (resistance index, EC50 in r22/EC50 in WT): 28 weeks of 700022 selection pressure
Protocol: A 700022-resistant line of L. mexicana (r22) was generated using a previously reported method (Figure S3). […] All leishmanicidal sterols identified were assayed against r22 after 8 weeks of 700022 pressure and cross-resistance was found against all four compounds, each with a similar resistance index of between 4–5 (Figure 6c). Following 28 weeks of selection, the morphology of the r22 promastigotes was compared to that of WT (Figure 6d). […] The body area of both promastigotes and amastigotes was also assessed, noting a small (c 20%) decrease in the body area of r22 parasites compared to WT strains (Figure S3).
Figure 6 Comparison between wildtype and 700022-resistant (r22) L. mexicana cell lines. Log concentration versus normalised (compared to untreated control) growth curves for wildtype (WT) and corresponding 700022-selected (r22) L. mexicana (a) promastigotes and (b) axenic amastigotes. Error bars represent upper and lower limits of the StDev (n = 9). […] The resistance index (EC50 in r22/EC50 in WT) are shown for each compound. (d) Scanning electron micrographs of WT and r22 promastigotes illustrating the shortened flagellum in r22 parasites. (e) Analysis of flagellum length in WT and r22 promastigotes (n = 287 of each strain) reported using a box and whisker plot (boxes represents the 25–75th percent distribution with the mean as a horizontal line, whiskers represent the distribution of all values) with a statistically significant difference (Mann–Whitney U test, p-value < 2.2 × 10^−16). […] Error bars represent upper and lower limits of the StDev (n = 9). […] The resistance index (EC50 in r22/EC50 in WT) are shown for each compound. TEXT PRINTED IN THE PICTURE: (c) 700022: 4.1 | (c) 700107: 4.1 | (c) 700136: 5.3 | (c) 700240: 5.3 | (f) 700022: 42.1 | (f) Milt: 17.9 | (f) Pent: 0.75 | (f) AmpB: 1.22 DOUBTS OF THE COPYIST ABOUT THIS PICTURE: Panels c and f: the numbers printed above the bar pairs have no measure or unit printed with them in the picture.
L. mexicana parasites were grown in increasing concentrations of 700022 in a stepwise manner, as previously described. […] A dose response assay of the newly selected promastigotes was completed as stated above, with the exception of the seeding density of 1 × 10^5 cells/mL. At this point, the drug pressure was increased to the concentration of the new EC50 value.

[2] = test system: L. mexicana axenic amastigotes; assay: Concentration-response EC50, L. mexicana axenic amastigotes (WT); assay type: cell-based, Leishmania mexicana; conditions: Leishmania mexicana
Description: Initial hits from the parasite panel screen were taken forward in log concentration versus normalised response assays to estimate the half maximal effective concentration (EC50) in hit species as well as the half maximal cytotoxic concentrations (CC50) in the human hepatoma cell line HepG2 as a preliminary test for selectivity. Using CC50/EC50 to define the selectivity index (SI), the selectivity for each compound in a defined species compared to a human cell line was estimated and compared to the EC50 (Figure 3).
EC50 values were determined by serial two-fold dilution of each compound in 96 well plates. Culture conditions and viability assays were as stated for the initial screen, with some exceptions. L. mexicana and L. donovani axenic amastigotes were seeded at 2 × 10^6 cell/s mL, T. brucei and T. evansi were seeded at 2 × 10^5 cells/mL. For cytotoxicity studies, HepG2 cells were seeded at 1 × 10^5 cells/mL, incubated for 48 h and viability was assessed using the Alamar Blue assay [66, 67]. […] Normalised growth and viability data (compared to untreated controls) were plotted against Log10 concentration to estimate EC50 in GraphPad (Prism v6).

| Compound | EC50 [1] | EC50 ([2]; read-out: WT EC50, L. mexicana WT axenic amastigotes) | r22 28 weeks RI (resistance index, EC50 in r22/EC50 in WT) [1] | EC50 ([2]; L. mexicana WT axenic amastigotes, read-out: WT EC50) |
| --- | --- | --- | --- | --- |
| C[C@@H]1[C@H](O)[C@@H](C)/C=C/C=C/C=C/C=C/C=C/C=C/C=C/[C@H](O[C@@H]2O[C@H](C)[C@@H](O)[C@H](N)[C@@H]2O)C[C@@H]2O[C@](O)(C[C@@H](O)C[C@@H](O)[C@H](O)CC[C@@H](O)C[C@@H](O)CC(=O)O[C@H]1C)C[C@H](O)[C@H]2C(=O)O [Amphotericin B, reference compound] | 0.28 µM | – | – | – |
| CCCCCCCCCCCCCCCCOP(=O)([O-])OCC[N+](C)(C)C [Miltefosine, reference compound] | 20 µM | 1.1 µM | 17.9 | – |
| N=C(N)c1ccc(OCCCCCOc2ccc(C(=N)N)cc2)cc1 [Pentamidine, reference compound] | 5.1 µM | – | 0.75 | 6.8 µM |
